# US12528802B2, “Heterocyclic compound” (Takeda Pharmaceutical Company Limited, priority 2019, dated 2026)
# Target: T1, glucosylceramide synthase (Homo sapiens, UniProt Q16739)
# T1 construct: made in house; host or cells: Expi293F cells (transient expression, pcDNA3.3-TOPO vector); microsome fraction used as enzyme source
# T1 sequence (Q16739 1-394): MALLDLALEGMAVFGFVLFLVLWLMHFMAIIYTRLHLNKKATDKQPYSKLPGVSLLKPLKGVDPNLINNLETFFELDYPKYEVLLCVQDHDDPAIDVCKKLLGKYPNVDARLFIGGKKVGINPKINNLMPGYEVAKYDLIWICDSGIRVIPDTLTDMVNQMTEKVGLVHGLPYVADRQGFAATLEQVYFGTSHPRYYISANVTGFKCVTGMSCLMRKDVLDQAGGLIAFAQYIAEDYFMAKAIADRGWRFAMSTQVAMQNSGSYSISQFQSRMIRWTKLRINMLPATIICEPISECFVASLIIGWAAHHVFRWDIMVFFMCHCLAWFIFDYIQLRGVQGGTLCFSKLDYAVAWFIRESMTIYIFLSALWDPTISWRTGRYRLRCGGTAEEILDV
# Experiment: Glucosylceramide synthase (GCS) enzyme assay, microsome fraction, C8 glucosylceramide quantified by Rapidfire MS/MS
# Assay type: biochemical
# Details: test compound 10 μM; 1.7 μM UDP-glucose, 3 μM C8 ceramide; room temperature 60 min; read-out: GCS enzyme inhibitory rate at 10 μM (%) (% of control)
# Summary of the method: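 Test compound, 10 μM final, was run against human GCS from transfected Expi293F microsome fractions, using substrate solution of 6 μM C8 ceramide (in DOPC liposomes) plus 3.4 μM UDP-glucose, pH 7.5 Tris buffer, 60 min, room temperature. Product C8 glucosylceramide measured by Rapidfire MS/MS against an internal standard, % inhibition referenced to no-enzyme and DMSO wells.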
row,inhibition at 10 µM [%],SMILES
1,71,"O=C1c2ncnc(-c3ccc(F)cc3OCC(F)(F)F)c2CN1c1ccc(F)cc1 [Example 185, 6-(4-fluorophenyl)-4-[4-fluoro-2-(2,2,2-trifluoroethoxy)phenyl]-5,6-dihydro-7H-pyrrolo[3,4-d]pyrimidin-7-one]"
2,99,"CC(C)(C#N)c1ccc(N2Cc3c(ccnc3-c3ccc(F)cc3OCC(F)(F)F)C2=O)cc1 [Example 269, 2-(4-{4-[4-fluoro-2-(2,2,2-trifluoroethoxy)phenyl]-1-oxo-1,3-dihydro-2H-pyrrolo[3,4-c]pyridin-2-yl}phenyl)-2-methylpropanenitrile]"
3,99,"COc1ccccc1-c1nccc2c1CN(c1ccc(OCC(F)(F)F)cc1)C2=O [Example 50, 4-(2-methoxyphenyl)-2-[4-(2,2,2-trifluoroethoxy)phenyl]-2,3-dihydro-1H-pyrrolo[3,4-c]pyridin-1-one]"
4,99,"O=C1c2ccnc(-c3ccccc3OCC(F)(F)F)c2CN1c1ccc(F)cn1 [Example 51, 2-(5-fluoropyridin-2-yl)-4-[2-(2,2,2-trifluoroethoxy)phenyl]-2,3-dihydro-1H-pyrrolo[3,4-c]pyridin-1-one]"
5,91,"O=C1c2ccnc(-c3ccccc3N3CCOCC3)c2CN1c1ccc(F)cc1 [Example 30, 2-(4-fluorophenyl)-4-[2-(morpholin-4-yl)phenyl]-2,3-dihydro-1H-pyrrolo[3,4-c]pyridin-1-one]"
6,88,"CC(=O)c1ccc(N2CC3=C(OC[C@H](C)N=C3c3ccccc3OCC(F)(F)F)C2=O)cc1 [Example 334, (3S)-7-(4-acetylphenyl)-3-methyl-5-[2-(2,2,2-trifluoroethoxy)phenyl]-2,3,6,7-tetrahydro-8H-pyrrolo [3,4-f][1,4]oxazepin-8-one]"
7,100,"CC(C)n1cc2c(c(-c3ccccc3OCC(F)(F)F)c1=O)CN(c1ccc(C(C)(C)O)cc1)C2=O [Example 376, 2-[4-(2-hydroxypropan-2-yl)phenyl]-5-(propan-2-yl)-7-[2-(2,2,2-trifluoroethoxy)phenyl]-1H-pyrrolo[3,4-c]pyridine-3,6(2H,5H)-dione]"
8,100,"Cc1cc2c(c(-c3ccccc3OCC(F)(F)F)n1)CN(c1ccc(C3(O)CCOCC3)cc1)C2=O [Example 348, 2-[4-(4-hydroxyoxan-4-yl)phenyl]-6-methyl-4-[2-(2,2,2-trifluoroethoxy)phenyl]-2,3-dihydro-1H-pyrrolo[3,4-c] pyridin-1-one]"
9,85,"COc1cc(C(=O)N2CCC2)ccc1-c1nccc2c1CN(c1ccc(OC(F)F)nc1)C2=O [Example 123, 4-[4-(azetidine-1-carbonyl)-2-methoxyphenyl]-2-[6-(difluoromethoxy)pyridin-3-yl]-2,3-dihydro-1H-pyrrolo[3,4-c]pyridin-1-one]"
10,100,"Cc1cc2c(c(-c3ccccc3OCC(F)(F)F)n1)CN(c1ccc(C(F)(F)CO)cc1)C2=O [Example 338, 2-[4-(1,1-difluoro-2-hydroxyethyl)phenyl]-6-methyl-4-[2-(2,2,2-trifluoroethoxy)phenyl]-2,3-dihydro-1H-pyrrolo [3,4-c]pyridin-1-one]"
11,74,"O=C1c2ccnc(-c3ccc(F)cc3OC(F)F)c2CN1c1ccc(OC(F)(F)F)cn1 [Example 57, 4-[2-(difluoromethoxy)-4-fluorophenyl]-2-[5-(trifluoromethoxy)pyridin-2-yl]-2,3-dihydro-1H-pyrrolo[3,4-c]pyridin-1-one]"
12,99,"Cc1cccc(OCC(F)(F)F)c1-c1nccc2c1CN(c1ccc(S(=O)(=O)C(F)F)cc1)C2=O [Example 201, 2-[4-(difluoromethanesulfonyl)phenyl]-4-[2-methyl-6-(2,2,2-trifluoroethoxy)phenyl]-2,3-dihydro-1H-pyrrolo[3,4-c]pyridin-1-one]"
13,100,"CC(C)(O)c1cc2c(c(-c3ccccc3OCC(F)F)n1)CN(c1ccc(OCC(F)(F)F)cc1)C2=O [Example 354, 4-[2-(2,2-difluoroethoxy)phenyl]-6-(2-hydroxypropan-2-yl)-2-[4-(2,2,2-trifluoroethoxy)phenyl]-2,3-dihydro-1H-pyrrolo[3,4-c]pyridin-1-one]"
14,85,"O=C1c2ccnc(-c3ccc(F)cc3OCC(F)(F)F)c2CN1c1ccc(OC(F)F)nn1 [Example 90, 2-[6-(difluoromethoxy)pyridazin-3-yl]-4-[4-fluoro-2-(2,2,2-trifluoroethoxy)phenyl]-2,3-dihydro-1H-pyrrolo[3,4-c]pyridin-1-one]"
15,90,"N#Cc1ccc(N2Cc3c(ccnc3-c3ccccc3OC(F)F)C2=O)nc1 [Example 73, 6-{4-[2-(difluoromethoxy)phenyl]-1-oxo-1,3-dihydro-2H-pyrrolo[3,4-c]pyridin-2-yl}pyridine-3-carbonitrile]"
16,86,"O=C1c2cncc(-c3ccccc3OCC(F)(F)F)c2CN1c1ccc(F)cc1 [Example 87, 2-(4-fluorophenyl)-7-[2-(2,2,2-trifluoroethoxy)phenyl]-1,2-dihydro-3H-pyrrolo[3,4-c]pyridin-3-one]"
17,96,"O=C1c2ccnc(-c3ccc(F)cc3OCC(F)(F)F)c2CN1c1ccc(C2(O)CCOC2)c(F)c1 (racemic) [Example 223, rac-2-[3-fluoro-4-(3-hydroxyoxolan-3-yl)phenyl]-4-[4-fluoro-2-(2,2,2-trifluoroethoxy)phenyl]-2,3-dihydro-1H-pyrrolo[3,4-c]pyridin-1-one]"
18,99,"COc1ccccc1-c1nccc2c1CN(c1ccc(OC(F)F)cc1)C2=O [Example 25, 2-[4-(difluoromethoxy)phenyl]-4-(2-methoxyphenyl)-2,3-dihydro-1H-pyrrolo[3,4-c]pyridin-1-one]"
19,60,"Cn1nc(N2Cc3c(ccnc3-c3ccc(F)cc3OCC(F)(F)F)C2=O)cc1OC(F)F [Example 309, 2-[5-(difluoromethoxy)-1-methyl-1H-pyrazol-3-yl]-4-[4-fluoro-2-(2,2,2-trifluoroethoxy)phenyl]-2,3-dihydro-1H-pyrrolo[3,4-c]pyridin-1-one]"
20,96,"O=C1c2ccnc(-c3ccc(F)cc3OCC(F)(F)F)c2CN1c1cnc(OC(F)F)cn1 [Example 100, 2-[5-(difluoromethoxy)pyrazin-2-yl]-4-[4-fluoro-2-(2,2,2-trifiuoroethoxy)phenyl]-2,3-dihydro-1H-pyrrolo[3,4-c]pyridin-1-one]"
21,100,"C#CCCC1(CCOc2ccc(N3Cc4c(ccnc4-c4ccccc4OCC(F)(F)F)C3=O)cc2)N=N1 [Example 349, 2-(4-{2-[3-(but-3-yn-1-yl)-3H-diaziren-3-yl]ethoxy}phenyl)-4-[2-(2,2,2-trifluoroethoxy)phenyl]-2,3-dihydro-1H-pyrrolo[3,4-c]pyridin-1-one]"
22,100,"CC(C)(O)c1ccc(N2Cc3c(ccnc3-c3ccccc3OCC(F)(F)F)C2=O)nc1 [Example 273, 2-[5-(2-hydroxypropan-2-yl)pyridin-2-yl]-4-[2-(2,2,2-trifluoroethoxy)phenyl]-2,3-dihydro-1H-pyrrolo [3,4-c]pyridin-1-one]"
23,95,"COc1ccccc1-c1nccc2c1CN(c1ccc(C(F)(F)F)cc1)C2=O [Example 6, 4-(2-methoxyphenyl)-2-[4-(trifluoromethyl)phenyl]-2,3-dihydro-1H-pyrrolo[3,4-c]pyridin-1-one]"
24,100,"O=C1c2ccnc(-c3ccccc3OCC(F)(F)F)c2CN1c1ccc(O[C@@H]2CCOC2)cc1 [Example 187, 2-(4-{[(3R)-oxolan-3-yl]oxy}phenyl)-4-[2-(2,2,2-trifluoroethoxy)phenyl]-2,3-dihydro-1H-pyrrolo[3,4-c]pyridin-1-one]"
25,96,"Cc1ccc(N2Cc3c(ccnc3-c3ccc(F)cc3OCC(F)(F)F)C2=O)cn1 [Example 89, 4-[4-fluoro-2-(2,2,2-trifluoroethoxy)phenyl]-2-(6-methylpyridin-3-yl)-2,3-dihydro-1H-pyrrolo[3,4-c]pyridin-1-one]"
26,98,"Fc1ccc(N2Cc3cnn(-c4ccccc4OCC(F)(F)F)c3C2)cc1 [Example 193, 5-(4-fluorophenyl)-1-[2-(2,2,2-trifluoroethoxy)phenyl]-1,4,5,6-tetrahydropyrrolo[3,4-c]pyrazole]"
27,99,"CC(C)(O)Cc1ccc(N2Cc3c(ccnc3-c3ccc(F)cc3OCC(F)(F)F)C2=O)cc1 [Example 305, 4-[4-fluoro-2-(2,2,2-trifluoroethoxy)phenyl]-2-[4-(2-hydroxy-2-methylpropyl)phenyl]-2,3-dihydro-1H-pyrrolo[3,4-c]pyridin-1-one]"
28,99,"O=C1c2ccnc(-c3ccncc3OCC(F)(F)F)c2CN1c1ccc(OC(F)F)cn1 [Example 91, 2-[5-(difluoromethoxy)pyridin-2-yl]-4-[3-(2,2,2-trifluoroethoxy)pyridin-4-yl]-2,3-dihydro-1H-pyrrolo[3,4-c]pyridin-1-one]"
29,100,"O=C1c2ccnc(-c3ccccc3OCC(F)(F)F)c2CN1c1ccc(O[C@H]2CCOC2)cc1 [Example 188, 2-(4-{[(3S)-oxolan-3-yl]oxy}phenyl)-4-[2-(2,2,2-trifluoroethoxy)phenyl]-2,3-dihydro-1H-pyrrolo[3,4-c]pyridin-1-one]"
